From patent US9827217B2, “Pharmaceutically acceptable salts of B-guanidinopropionic acid with improved properties and uses thereof” (Rgenix, Inc., priority 2015, dated 2017)
Entries after “also recorded” stand apart in the source; their conditions may differ.

Tests used:
Type in all cases: physicochemical
[1] = Dynamic vapor sorption (moisture uptake)
Experimental: Samples were analyzed using an Aquadyne DVS-2 gravimetric water sorption analyzer. The relative humidity was adjusted between 2-95% and the weight of the sample was continuously monitored and recorded.
[…]: β-GPA maleate (1:1) Form II, β-GPA fumarate (1:1), β-GPA maleate (2:1), β-GPA succinate (2:1) and β-GPA oxalate (1:1) were analyzed by DVS experiment followed by XRPD analysis of the sample at the end of the experiment.
Sample 2162-64-1 was analyzed by DVS in triplicate and the post DVS samples were characterized by XRPD to identify the form at the end of the experiment.

[2] = Solid form stability of salts in different solvents (slurry); conditions: 48 hours, room temperature
Experimental: Three salts were studied for solid form stability in water (disproportionation test), methanol, acetonitrile, and acetone:water (9:1) for 48 hours at room temperature.

[3] = Determination of bulk and tapped density; conditions: for Tapped density (ρT): Tap density analyzer
Experimental: The bulk density of β-GPA oxalate (Pattern 18 B), succinate (Pattern 15A), and fumarate (Pattern 7A) were determined by pouring in a known amount of salt (g) into a measuring cylinder. The volume (Vi) occupied by the salt was recorded and the bulk density (ρB) was determined using equation 1. ρB=g/Vi (1)
The tapped densities of the salts were determined using a Tap density analyzer. A known amount of salt was poured (g) into a measuring cylinder and the initial volume was recorded and tapped using a Tap density analyzer. The final volume (Vf) after tapping was recorded and the tapped density (ρT) was calculated by using equation 2. ρT=g/Vf (2)

[4] = Flowability measurement using Hanson Flodex unit; conditions: density and Hanson Flodex data
Source text: A cylindrical vessel is secured to the stand and above that a funnel is also secured such that the bottom of the funnel is close to the vessel. A powder load of ≈50-60 g is then poured through the funnel into the middle of the cylinder. The lever device is pulled to open the hole in the disk quickly and without vibration. If a powder slowly flows through the small-diameter holes, leaving a cavity shaped like an upside-down, truncated cone, the test is considered positive. If a powder flocculates in bulk and falls abruptly, forming a cylindrical cavity, the test is considered negative. […] If the experiment is negative, the powder is tested again with a disk having a larger hole.

[5] = Solubility of β-GPA in water
[6] = Determination of Carr's index and Hausner ratio; conditions: scale of Table 5
Source text: The flow properties of β-GPA are sub-optimal. The bulk density is 0.389 g/cc and the tapped density is 0.627 g/cc. These measurements can be used to calculate the Carr's index and Hausner ratio for a substance. The Carr's index and Hausner ratio are indicators of flowability of a powder. As known in the art, e.g., as described in Carr R. L. Chem. Eng. 1965, 72, 163-168, the relationship to flowability of a powder to the Carr's index and Hausner ratio is based on the scale shown in Table 5 below.
Carr's index or Carr's compressibility index (C) is an indication of the compressibility of a powder. It can be calculated using the equation below: Carr's index(C)=100(Vi−Vf)/Vi (3)
The Hausner ratio is a number that is correlated to the flowability of a powder or granular material. It is calculated by using the equation below: Hausner ratio=Vi/Vf (4)

[7] = Stability of free β-GPA at 40° C. at 75% humidity; conditions: 40° C. at 75% humidity after 4 weeks
[8] = Experiments performed on 2:1 fumarate salt (Pattern 7C)
Experimental: To confirm the above hypothesis the following experiments (Table 24) were performed on the lyophilized sample (Pattern 7C): […]

[9] = Solid form stability of 1:1 β-GPA fumarate at various temperature/humidity conditions; conditions: for XRPD after stability study: a week
Experimental: The solid form stability of β-GPA fumarate was studied at various temperature/humidity conditions as listed in Table 22 for a week using saturated salt solution chambers. The samples were analyzed by XRPD after a week.

[10] = Gravimetric solubility of β-GPA fumarate in solvents; conditions: fifteen solvents and solvent mixtures at 15 and 45° C.
Experimental: Solubility of β-GPA fumarate was measured gravimetrically in fifteen different solvents and solvent mixtures at 15 and 45° C. About 100 mg of the compound was dispensed in ten volumes (1 mL) of the solvent/solvent mixture and slurried for 48 hours. Table 23 represents the solubility of β-GPA fumarate in different solvents. After 48 hours the vials were centrifuged. The supernatant was collected and left for slow evaporation under vacuum at 45° C. and solubility was determined. The solids obtained after centrifugation and evaporation were analyzed by XRPD.

[11] = Temperature cycling of 1:1 β-GPA fumarate
Experimental: The following (Table 25) experiments were performed to isolate possible polymorphic forms of 1:1 β-GPA fumarate.

[12] = Solid form stability of 1:1 β-GPA fumarate at various temperature/humidity conditions
[13] = 50 mg slurried in 0.2 mL of water

With N=C(N)NCCC(=O)O.O=C(O)/C=C\C(=O)O [β-GPA maleate (1:1) Form II] the “Solid form after the DVS experiment (XRPD)” value ([1]; XRPD of post DVS sample) was “no form change”, the “Solid form stability (XRPD) after slurry in acetone:water (9:1)” value (shortened to “Solid form stability (XRPD) … (9:1)”) [2] was “matched with the original pattern of the salt (Pattern 6D) along with some additional peaks” and the “Solid form stability (XRPD) after slurry in acetonitrile” value (“Solid form stability … in acetonitrile” below) [2] was “retain its XRPD pattern”. For the same molecule, the “Solid form stability (XRPD) after slurry in methanol” value (“Solid form stability … in methanol” below) [2] was “retain its XRPD pattern” and the “Solid form stability (XRPD) after slurry in water (disproportionation test)” value (“Solid form stability … (disproportionation test)” below) [2] was “retained their XRPD patterns”.

With N=C(N)NCCC(=O)O.N=C(N)NCCC(=O)O.O=C(O)CCC(=O)O [β-GPA succinate (2:1)] the “Solid form after the DVS experiment (XRPD)” value ([1]; XRPD of post DVS sample) was “retained their XRPD”, the “Solid form after the DVS experiment (XRPD)” value ([1]; XRPD of post DVS sample, listed as 2:1 succinate salt) was “no form change” and the “Solid form after the DVS experiment (XRPD)” value ([1]; XRPD of post DVS sample, listed as 2:1 β-GPA succinate) was “no form change”. For the same molecule, the “Solid form stability (XRPD) … (9:1)” value [2] was “presence of β-GPA”, the “Solid form stability … in acetonitrile” value [2] was “retain its original form” and the “Solid form stability … in acetonitrile” value ([2]; listed as 2:1 β-GPA succinate) was “retain its XRPD pattern”. For the same molecule, the “Solid form stability … in methanol” value [2] was “retain its original form”, the “Solid form stability … in methanol” value ([2]; listed as 2:1 β-GPA succinate) was “retain its XRPD pattern” and the “Solid form stability … (disproportionation test)” value [2] was “showed two peaks from β-GPA after 6 hours”. For the same molecule, the “Solid form stability … (disproportionation test)” value ([2]; listed as 2:1 β-GPA succinate) was “started showing up peaks from β-GPA after 6 hours”, the “Bulk density (ρB)” value [3] was 0.405 g/cc and the “Tapped density (ρT)” value [3] was 0.472 g/cc. For the same molecule, the “Flow character (summary from the experimental data)” value [4] was “good”.

For N=C(N)NCCC(=O)O.O=C(O)C(=O)O [β-GPA oxalate (1:1)], the “Solid form after the DVS experiment (XRPD)” value ([1]; XRPD of post DVS sample) was “retained their XRPD”, the “Solid form after the DVS experiment (XRPD)” value ([1]; XRPD of post DVS sample, listed as 1:1 oxalate salt) was “no form change” and the “Solid form after the DVS experiment (XRPD)” value ([1]; XRPD of post DVS sample, listed as 1:1 β-GPA oxalate) was “no form change”. The “Solid form stability (XRPD) … (9:1)” value [2] was “retain their XRPD pattern”, the “Solid form stability … in acetonitrile” value [2] was “retain their XRPD pattern” and the “Solid form stability … in methanol” value [2] was “retain their XRPD pattern”. For the same molecule, the “Solid form stability … (disproportionation test)” value [2] was “retained their XRPD patterns”, the “Solid form stability … (disproportionation test)” value ([2]; listed as 1:1 β-GPA oxalate) was “retained their XRPD pattern” and the “Bulk density (ρB)” value [3] was 0.505 g/cc. For the same molecule, the “Tapped density (ρT)” value [3] was 0.623 g/cc and the “Flow character (summary from the experimental data)” value [4] was “fair”.

For N=C(N)NCCC(=O)O [β-GPA, β-Guanidinopropionic acid, reference compound], the solubility [5] was > 50 mg/mL, the “Moisture uptake during the DVS experiment” value ([1]; DVS, relative humidity cycled up to 95%) was “around 0.1%” and the “Solid form after the DVS experiment (XRPD)” value ([1]; XRPD of post DVS sample) was “No change in the solid form”. The “Bulk density (ρB)” value [3] was 0.389 g/cc, the “Tapped density (ρT)” value [3] was 0.627 g/cc and the “Flow character by Carr's index” value [6] was “Very poor (32-37)”. The “Flow character (summary from the experimental data)” value [4] was “poor” and the Degradation [7] was “No degradation”.

For N=C(N)NCCC(=O)O.N=C(N)NCCC(=O)O.O=C(O)/C=C/C(=O)O [2:1 fumarate salt], the “Stability of the crystalline form of the 2:1 salt” value [8] was “unstable”, the “Result: XRPD pattern that Pattern 7C converted to” value [8, 13] was “Pattern 7A” and the “Time to conversion of Pattern 7C to Pattern 7A” value [8, 13] was “(within 10 minutes”. The “Result: XRPD pattern that Pattern 7C converted to” value ([8]; heated at 50° C. 5-10 minutes) was “Pattern 7A”, the “Result: XRPD pattern that Pattern 7C converted to” value ([8]; humidity chamber with RH >95% for 48 hours) was “Pattern 7A” and the “Result: XRPD pattern that Pattern 7C converted to” value ([8]; mixed with Pattern 7A, undisturbed at room temperature (48 hours)) was “Pattern 7A”. The “Form conversion of the 2:1 salt” value ([8]; slurried in water, heated, or under high humidity conditions) was “converted to the 1:1 salt”.

For N=C(N)NCCC(=O)O.O=C(O)/C=C/C(=O)O [β-GPA fumarate (1:1)], the “Solid form after the DVS experiment (XRPD)” value ([1]; XRPD of post DVS sample) was “presence of two peaks from the β-GPA”, the “Solid form after the DVS experiment (XRPD)” value ([1]; XRPD of post DVS sample, listed as 1:1 fumarate) was “presence of β-GPA peaks along with Pattern 7A” and the “Solid form after the DVS experiment (XRPD)” value ([1]; XRPD of post DVS sample, listed as 1:1 fumarate salt) was “no form change”. For the same molecule, the “Moisture uptake during DVS” value ([1]; scaled-up sample 2162-64-1, DVS in triplicate) was “less than 0.1%”, the “Solid form after the DVS experiment (XRPD)” value ([1]; scaled-up sample 2162-64-1, three DVS experiments) was “identical to β-GPA fumarate (Pattern 7A); also recorded: did not exhibit any dissociation of the salt” and the “Solid form stability (XRPD) … (9:1)” value [2] was “retain their XRPD pattern”. For the same molecule, the “Solid form stability … in acetonitrile” value [2] was “retain their XRPD pattern”, the “Solid form stability … in methanol” value [2] was “retain their XRPD pattern” and the “Solid form stability … (disproportionation test)” value [2] was “retained their XRPD patterns”. For the same molecule, the “Solid form stability … (disproportionation test)” value ([2]; listed as 1:1 β-GPA fumarate) was “retained their XRPD pattern”, the “Bulk density (ρB)” value [3] was 0.576 g/cc and the “Tapped density (ρT)” value [3] was 0.613 g/cc. For the same molecule, the “Flow character (summary from the experimental data)” value [4] was “excellent”, the “XRPD after stability study” value ([9]; 20 ° C., 43% relative humidity) was “Pattern 7A” and the “XRPD after stability study” value ([9]; 20 ° C., 59% relative humidity) was “Pattern 7A”. The “XRPD after stability study” value ([9]; 20 ° C., 73% relative humidity) was “Pattern 7A”, the “XRPD after stability study” value ([9]; 20 ° C., >95% relative humidity) was “Pattern 7A” and the “XRPD after stability study” value ([9]; 40 ° C., 82% relative humidity) was “Pattern 7A”. The “XRPD after stability study” value ([9]; 60 ° C., 80% relative humidity) was “Pattern 7A”, the “XRPD after stability study (summary)” value ([9]; various temperature/RH conditions of Table 22, a week) was “retained the original XRPD pattern (Pattern 7A)” and the “Solid form of precipitates after 48 hours slurries (XRPD)” value [10] was “no form transformations”. For the same molecule, the “Result (XRPD) after temperature cycling” value ([11]; 50° C. 2 hours, RT, 50° C. 48 hours) was “Pattern 7A”, the “Result (XRPD) after temperature cycling” value ([11]; dry ice-acetone 30 minutes, RT) was “Pattern 7A” and the “Result (XRPD) after temperature cycling” value ([11]; heated to 150° C. and brought to room temperature, three cycles) was “Pattern 7A”. For the same molecule, the “Result (XRPD) after temperature cycling” value ([11]; heated to 165° C., immediately dry ice/acetone cooling bath 15 min) was “Pattern 7D”, the Appearance after heating ([11]; heating at 160-165° C. (2162-84-7)) was “yellow to brownish solid” and the “Result (XRPD) after temperature cycling” value ([11]; vacuum oven 130° C. 2 hours, RT, 130° C. 48 hours) was “Pattern 7A”. The “XRPD after stability study” value ([12]; 60 ° C., 50% relative humidity, a week) was “Pattern 7A” and the “Solid form stability at high humidity (XRPD)” value ([12]; sample 2162-64-1, RH>95% at room temperature (20° C.), 48 hours) was “retain its original XRPD pattern (Pattern 7A); also recorded: stable”.
